Assay results taken from patent US9233977B2, “Leucine-rich repeat kinase enzyme activity” (Merck Sharp & Dohme Corp., priority 2010, dated 2016).

molecular target: T1, LRRK2 G2019S mutant kinase (Homo sapiens, UniProt Q5S007, G2019S); assay: LRRK2 G2019S LanthaScreen TR-FRET kinase assay; assay type: biochemical; conditions: LRRK2 G2019S GST-tagged protein, 75 nM Fluorescein-ERM (LRRKtide), 100 μM ATP, 1 hour at room temperature; read-out: IC50 (potency)
T1 construct: GST; purchased Invitrogen PV4882
T1 sequence (Q5S007 whole entry G2019S): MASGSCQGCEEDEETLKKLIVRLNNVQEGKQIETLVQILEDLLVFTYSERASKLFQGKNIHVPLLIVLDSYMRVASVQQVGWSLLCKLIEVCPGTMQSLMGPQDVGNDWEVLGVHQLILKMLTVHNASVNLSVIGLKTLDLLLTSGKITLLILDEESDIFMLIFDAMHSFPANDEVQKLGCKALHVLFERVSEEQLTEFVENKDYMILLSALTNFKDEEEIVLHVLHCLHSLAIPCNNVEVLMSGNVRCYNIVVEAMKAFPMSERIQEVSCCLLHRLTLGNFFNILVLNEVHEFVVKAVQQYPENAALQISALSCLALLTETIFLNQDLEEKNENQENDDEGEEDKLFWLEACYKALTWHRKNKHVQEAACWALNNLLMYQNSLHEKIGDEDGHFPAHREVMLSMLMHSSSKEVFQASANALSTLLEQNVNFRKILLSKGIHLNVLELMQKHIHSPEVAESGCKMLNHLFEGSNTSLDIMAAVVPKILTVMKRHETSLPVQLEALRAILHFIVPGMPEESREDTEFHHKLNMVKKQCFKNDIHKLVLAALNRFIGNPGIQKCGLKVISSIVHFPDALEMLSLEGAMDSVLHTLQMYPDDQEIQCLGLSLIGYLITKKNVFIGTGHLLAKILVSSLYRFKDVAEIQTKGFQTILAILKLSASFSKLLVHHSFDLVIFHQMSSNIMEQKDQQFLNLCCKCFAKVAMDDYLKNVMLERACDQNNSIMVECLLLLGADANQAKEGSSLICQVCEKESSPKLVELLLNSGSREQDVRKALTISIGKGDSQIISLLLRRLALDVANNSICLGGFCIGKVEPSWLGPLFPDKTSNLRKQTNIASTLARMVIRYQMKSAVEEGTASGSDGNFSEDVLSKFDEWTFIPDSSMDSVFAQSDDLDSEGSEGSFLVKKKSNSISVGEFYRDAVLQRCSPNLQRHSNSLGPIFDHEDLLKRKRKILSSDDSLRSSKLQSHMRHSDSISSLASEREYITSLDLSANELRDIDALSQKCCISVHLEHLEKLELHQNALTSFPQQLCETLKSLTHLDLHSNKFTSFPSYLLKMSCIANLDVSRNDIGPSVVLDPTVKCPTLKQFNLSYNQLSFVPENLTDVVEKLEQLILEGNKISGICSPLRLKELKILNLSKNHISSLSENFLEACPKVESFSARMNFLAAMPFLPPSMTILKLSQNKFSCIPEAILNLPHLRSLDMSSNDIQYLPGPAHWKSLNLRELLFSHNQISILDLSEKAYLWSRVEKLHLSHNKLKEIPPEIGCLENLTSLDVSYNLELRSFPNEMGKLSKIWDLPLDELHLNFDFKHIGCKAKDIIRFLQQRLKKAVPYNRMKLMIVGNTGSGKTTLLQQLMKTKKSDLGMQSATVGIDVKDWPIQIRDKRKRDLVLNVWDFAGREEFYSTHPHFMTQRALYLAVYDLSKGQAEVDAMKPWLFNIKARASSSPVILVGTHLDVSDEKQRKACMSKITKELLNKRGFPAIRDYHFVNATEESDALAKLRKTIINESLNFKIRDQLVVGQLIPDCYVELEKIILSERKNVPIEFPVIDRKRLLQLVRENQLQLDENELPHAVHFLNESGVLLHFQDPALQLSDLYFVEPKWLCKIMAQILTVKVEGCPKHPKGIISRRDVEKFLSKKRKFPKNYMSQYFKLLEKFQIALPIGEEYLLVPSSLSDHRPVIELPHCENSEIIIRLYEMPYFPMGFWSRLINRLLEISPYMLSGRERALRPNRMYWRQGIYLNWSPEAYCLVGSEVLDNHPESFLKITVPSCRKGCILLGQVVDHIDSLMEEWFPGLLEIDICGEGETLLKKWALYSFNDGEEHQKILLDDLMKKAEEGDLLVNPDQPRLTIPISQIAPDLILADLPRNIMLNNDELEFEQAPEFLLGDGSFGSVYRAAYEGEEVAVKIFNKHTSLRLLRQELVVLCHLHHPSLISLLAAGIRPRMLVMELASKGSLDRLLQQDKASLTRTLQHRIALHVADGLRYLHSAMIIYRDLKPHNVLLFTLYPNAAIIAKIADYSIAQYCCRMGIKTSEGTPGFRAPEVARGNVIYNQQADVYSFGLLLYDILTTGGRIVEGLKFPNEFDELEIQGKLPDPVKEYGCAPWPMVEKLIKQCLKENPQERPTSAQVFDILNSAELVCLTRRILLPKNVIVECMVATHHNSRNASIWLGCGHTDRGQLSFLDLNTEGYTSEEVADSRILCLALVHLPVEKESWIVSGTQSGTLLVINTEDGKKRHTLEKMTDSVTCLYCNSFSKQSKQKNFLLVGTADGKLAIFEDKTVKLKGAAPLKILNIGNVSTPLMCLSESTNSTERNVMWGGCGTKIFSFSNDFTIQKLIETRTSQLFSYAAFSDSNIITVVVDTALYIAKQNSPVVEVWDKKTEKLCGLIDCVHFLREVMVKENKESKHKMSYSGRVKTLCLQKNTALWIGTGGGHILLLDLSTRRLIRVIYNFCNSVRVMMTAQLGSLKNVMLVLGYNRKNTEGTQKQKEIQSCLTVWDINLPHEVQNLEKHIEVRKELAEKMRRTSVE
Description: The final solvent concentration in the assay was 1% DMSO. […] Generation of raw data and workup of data to derive the IC50 (potency) and maximal inhibition at concentrations tested were performed using Merck's Assay Data Analyzer (ADA) software.
The IC50 (potency) was evaluated for the example compounds presented above.

Row | Compound | IC50
1 | CSc1sc(-c2cc[nH]n2)c2c1C(=O)N(CCC1CCCNC1)CC2 (stereo not drawn) [Example 73, 3-(methylsulfanyl)-5-[2-(3-piperidinyl)ethyl]-1-(1H-pyrazol-3-yl)-6,7-dihydrothieno[3,4-c]pyridin-4(5)-one] | 5.9 µM
2 | CC1CNC(=O)c2c(SCC3CC3)sc(-c3cc[nH]n3)c21 (stereo in doubt) [Example 29] | 0.031 µM
3 | CNc1sc(-c2cc[nH]n2)c2c1C(=O)NC(CC(C)C)C2 (stereo not drawn) [Example 95, 3-(methylamino)-6-(2-methyl)propyl-1-(1H-pyrazol-3-yl)-6,7-dihydrothieno[3,4-c]pyridin-4(5H)-one] | 0.47 µM
4 | CSc1sc(-c2cc[nH]n2)c2c1C(=O)NC(C(=O)OC(C)(C)C)C2 (stereo not drawn) [Example 20, tert-butyl-3-(methylsulfanyl)-4-oxo-1-(1H-pyrazol-3-yl)-4,5,6,7-tetrahydrothieno[3,4-c]pyridine-carboxylate] | 7.9 µM
5 | CSc1sc(-c2cc[nH]n2)c2c1C(=O)NC[C@H]2C [Example 22, (7S)-7-methyl-3-(methylsulfanyl)-1-(1H-pyrazol-3-yl)-6,7-dihydrothieno[3,4-c]pyridin-4(5)-one] | 0.4 µM
6 | O=C1NCCc2c(-c3cc[nH]n3)sc(Sc3ccccc3)c21 [Example 53, 3-phenylsulfanyl-1-(1H-pyrazol-3-yl)-6,7-dihydrothieno[3,4-c]pyridin-4(5)-one] | 1.5 µM
7 | C[C@@H]1Cc2c(-c3cc[nH]n3)sc(SC3(C(=O)O)CCCC3)c2C(=O)N1 [Example 50, 1-{[(6R)-6-methyl-4-oxo-1-(1H-pyrazol-3-yl)-4,5,6,7-tetrahydrothieno[3,4-c]pyridin-3-yl]sulfanyl}cyclopentanecarboxylic acid] | 3.4 µM
8 | CSc1sc(-c2cc[nH]n2)c2c1C(=O)N(CCC=C(F)F)CC2 [Example 69, 5-(4,4-difluorobut-3-en-1-yl)-3-(methylsulfanyl)-1-(1H-pyrazol-3-yl)-6,7-dihydrothieno[3,4-c]pyridin-4(5)-one] | 0.76 µM
9 | CC(C)CC1Cc2c(-c3cc[nH]n3)sc(SC3CCCC3)c2C(=O)N1 (stereo not drawn) [Example 34, 6-(2-methylpropyl)-3-(cyclopentylsulfanyl)-1-(1H-pyrazol-3-yl)-6,7-dihydrothieno[3,4-c]pyridin-4(5)-one] | 0.11 µM
10 | CSc1sc(-c2cc[nH]n2)c2c1C(=O)NC(CC(C)C)C2 (stereo not drawn) [Example 12, 6-(2-methylpropyl)-3-(methylsulfanyl)-1-(1H-pyrazol-3-yl)-6,7-dihydrothieno[3,4-c]pyridin-4(5)-one] | 0.3 µM
11 | CNc1sc(-c2cc[nH]n2)c2c1C(=O)N[C@H](C)C2 [Example 100, (6R)-3-(methylamino)-6-methyl-1-(1H-pyrazol-3-yl)-6,7-dihydrothieno[3,4-c]pyridin-4(5H)-one] | 3.1 µM
12 | CSc1sc(-c2cc[nH]n2)c2c1C(=O)N(c1cccc(F)c1)CC2 [Example 82, 5-(3-fluorophenyl)-3-(methylsulfanyl)-1-(1H-pyrazol-3-yl)-6,7-dihydrothieno[3,4-c]pyridin-4(5)-one] | 4 µM
13 | CCCCNCCSc1sc(-c2cc[nH]n2)c2c1C(=O)NCC2 [Example 37, 3-{[2-(butylamino)ethyl]sulfanyl}-1-(1H-pyrazol-3-yl)-6,7-dihydrothieno[3,4-c]pyridin-4(5)one] | 5.2 µM
14 | CSc1sc(-c2cc[nH]n2)c2c1C(=O)N(c1ccccc1)CC2 [Example 81, 3-(Methylsulfanyl)-5-phenyl-1-(1H-pyrazol-3-yl)-6,7-dihydrothieno[3,4-c]pyridin-4(5H)-one] | 2 µM
15 | CSc1sc(-c2cc[nH]n2)c2c1C(=O)N(CCCCc1ccccc1)CC2 [Example 64, 5-[(4-phenyl)butyl]-3-(methylsulfanyl)-1-(1H-pyrazol-3-yl)-6,7-dihydrothieno[3,4-c]pyridin-4(5)-one] | 5 µM
16 | CSc1sc(-c2cc[nH]n2)c2c1C(=O)N(CCCC#N)CC2 [Example 59, 4-[3-(methylsulfanyl)-4-oxo-1-(1H-pyrazol-3-yl)-6,7-dihydrothieno[3,4-]pyridin-5(4H)-yl]butanenitrile] | 3.7 µM
17 | CSc1sc(-c2cc[nH]n2)c2c1C(=O)N(CCN1CCCCC1)CC2 [Example 80, 3-(methylsulfanyl)-5-[2-(piperidin-1-yl)ethyl]-1-(1H-pyrazol-3-yl)-6,7-dihydrothieno[3,4-c]pyridin-4(5)-one] | 7.8 µM
18 | CSc1sc(-c2cc[nH]n2)c2c1C(=O)NC1(CCC1)C2 [Example 5, 3′-(methylsulfanyl)-4′-oxo-1′-(1H-pyrazol-3-yl)-7′H-spiro[cyclobutane-1,6′-thieno[3,4-1]pyridine]-4′(5′H)-one] | 0.16 µM
19 | CSc1sc(-c2cc[nH]n2)c2c1C(=O)N(Cc1ccncc1)CC2 [Example 72, 5-[(4-pyridyl)methyl]-3-(methylsulfanyl)-1-(1H-pyrazol-3-yl)-6,7-dihydrothieno[3,4-c]pyridin-4(5)-one] | 7.9 µM
20 | O=C1NCCc2c(-c3cc[nH]n3)sc(SC3CCCC3)c21 [Example 30, 3-(Cyclopentylsulfanyl)-1-(1H-pyrazol-3-yl)-6,7-dihydrothieno[3,4-c]pyridin-4(5H)-one] | 0.29 µM
21 | O=C1NCCc2c(-c3cc[nH]n3)sc(SCC3CC3)c21 [Example 26, 3-[(cyclopropylmethyl)sulfanyl]-1-(1H-pyrazol-3-yl)-6,7-dihydrothieno[3,4-c]pyridin-4(5)-one] | 0.3 µM

The remaining compounds from weak to strong by IC50, led by results:

Row | IC50 | Compound
22 | 8.4 µM | CSc1sc(-c2cc[nH]n2)c2c1C(=O)N(CC1CCCCO1)CC2 (stereo not drawn) [Example 63, 5-[(2-tetrahydropyranyl)methyl]-3-(methylsulfanyl)-1-(1H-pyrazol-3-yl)-6,7-dihydrothieno[3,4-c]pyridin-4(5)-one]
23 | 7.5 µM | CSc1sc(-c2cc[nH]n2)c2c1C(=O)N(CCCCCc1ccccc1)CC2 [Example 74, 5-[(5-phenyl)pentyl]-3-(methylsulfanyl)-1-(1H-pyrazol-3-yl)-6,7-dihydrothieno[3,4-c]pyridin-4(5)-one]
24 | 5.7 µM | CCN(CC)CCSc1sc(-c2cc[nH]n2)c2c1C(=O)NCC2 [Example 39, 3-{[2-{diethylamino)ethyl]sulfanyl}-1-(1H-pyrazol-3-yl)-6,7-dihydrothieno[3,4-c]pyridin-4(5)-one]
25 | 4.7 µM | COc1cccc(N2CCc3c(-c4cc[nH]n4)sc(SC)c3C2=O)c1 [Example 84, 5-(3-methoxyphenyl)-3-(methylsulfanyl)-1-(1H-pyrazol-3-yl)-6,7-dihydrothieno[3,4-c]pyridin-4(5)-one]
26 | 4.7 µM | NCCSc1sc(-c2cc[nH]n2)c2c1C(=O)NCC2 [Example 40]
27 | 4.3 µM | CSc1sc(-c2cc[nH]n2)c2c1C(=O)N(CC1CCNC1)CC2 (stereo not drawn) [Example 62, 3-(methylsulfanyl)-1-(1H-pyrazol-3-yl)-5-(pyrrolidin-3-ylmethyl)-6,7-dihydrothieno[3,4-c]pyridin-4(5H)-one]
28 | 3.8 µM | CSc1sc(-c2cc[nH]n2)c2c1C(=O)N(Cc1ccc(Br)cn1)CC2 [Example 57, 5-[(5-bromopyridin-2-yl)methyl]-3-(methylsulfanyl)-1-(1H-pyrazol-3-yl)-6,7-dihydrothieno[3,4-c]pyridin-4(5)-one]
29 | 3.7 µM | CSc1sc(-c2cc[nH]n2)c2c1C(=O)N(CC1CCOCC1)CC2 [Example 66, 5-[(4-tetrahydropyranyl)methyl]-3-(methylsulfanyl)-1-(1H-pyrazol-3-yl)-6,7-dihydrothieno[3,4-c]pyridin-4(5)-one]
30 | 3.7 µM | CSc1sc(-c2cc[nH]n2)c2c1C(=O)N(Cc1ccnc3ccccc13)CC2 [Example 56, 3-(methylsulfanyl)-1-(1H-pyrazol-3-yl)-5-(quinolin-4-ylmethyl)-6,7-dihydrothieno[3,4-c]pyridin-4(5)-one]
31 | 3.5 µM | CSc1sc(-c2cc[nH]n2)c2c1C(=O)N(C(C)C)CC2 [Example 54, 3-(Methylsulfanyl)-5-(propan-2-yl)-1-(1H-pyrazol-3-yl)-6,7-dihydrothieno[3,4-c]pyridin-4(5H)-one]
32 | 1.3 µM | CSc1sc(-c2cc[nH]n2)c2c1C(=O)N(Cc1ccccc1)CC2 [Example 77, 5-benzyl-3-(methylsulfanyl)-1-(1H-pyrazol-3-yl)-6,7-dihydrothieno[3,4-c]pyridin-4(5)-one]
33 | 0.53 µM | O=C1NC(Cc2ccccc2)Cc2c(-c3cc[nH]n3)sc(SC3CCCC3)c21 (stereo not drawn) [Example 33, 6-benzyl-3-(cyclopentylsulfanyl)-1-(1H-pyrazol-3-yl)-6,7-dihydrothieno[3,4-c]pyridin-4(5)-one]
34 | 0.46 µM | CC(C)Sc1sc(-c2cc[nH]n2)c2c1C(=O)NCC2 [Example 41, 3-[2-(1-methyl)ethylsulfanyl]-1-(1H-pyrazol-3-yl)-6,7-dihydrothieno[3,4-c]pyridin-4(5)-one]
35 | 0.33 µM | CNc1sc(-c2cc[nH]n2)c2c1C(=O)NC(Cc1ccccc1)C2 (stereo not drawn) [Example 93, 3-(methylamino)-6-benzyl-1-(1H-pyrazol-3-yl)-6,7-dihydrothieno[3,4-c]pyridin-4(5H)-one]
36 | 0.32 µM | C[C@H]1Cc2c(-c3cc[nH]n3)sc(NC3CCCC3)c2C(=O)N1 [Example 97, (6S)-3-(cyclopentylamino)-6-methyl-1-(1H-pyrazol-3-yl)-6,7-dihydrothieno[3,4-c]pyridin-4(5H)-one]
37 | 0.26 µM | CSc1sc(-c2cc[nH]n2)c2c1C(=O)NC(Cc1ccccc1)C2 (stereo not drawn) [Example 2, 6-benzyl-3-(methylsulfanyl)-1-(1H-pyrazol-3-yl)-6,7-dihydrothieno[3,4-c]pyridin-4(5)-one]
38 | 0.24 µM | CSc1sc(-c2cc[nH]n2)c2c1C(=O)N[C@H](c1cc(F)cc(F)c1)C2 [Example 16, (6S)-3-(methylsulfanyl)-6-(3,5-difluorophenyl)-1-(1H-pyrazol-3-yl)-6,7-dihydrothieno[3,4-c]pyridin-4(5)-one]
39 | 0.12 µM | O=C1NC2(CCC2)Cc2c(-c3cc[nH]n3)sc(NC3CCCC3)c21 [Example 88, 3′-(cyclopentylamino)-4′-oxo-1′-(1H-pyrazol-3-yl)-7′H-spiro[cyclobutane-1,6′-thieno[3,4-1]pyridine]-4′(5′H)-one]
